BindingDB's records for doi:10.1021/ml3003346 (2012)

Assay: Inhibition of EZH2-mediated proliferation of human LNCaP cells after 6 days by chemiluminescence analysis

IC50: 4.5 µM
SMILES: Cc1cc(C)c(CNC(=O)c2cc(-c3ccc(N4CCN(C)CC4)nc3)cc3c2cnn3C(C)C)c(=O)[nH]1
